Data reported in PubChem BioAssay (NCI).
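Exposure lasted 48 hours, with cells grown in 96-well plates and compounds tested at five concentrations. GI50 is the concentration that inhibits growth by half. TGI marks complete inhibition of growth.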

Legend:
Test in all cases: NCI anticancer screen, dose series, 48 h
[1] = system: RXF 393 renal
[2] = system: HS 578T breast
[3] = system: HCT-15 colon
[4] = system: SK-MEL-28 melanoma
[5] = system: SK-MEL-5 melanoma
[6] = system: SNB-19 CNS
[7] = system: M14 melanoma
[8] = system: DU-145 prostate
[9] = system: HOP-62 NSCLC
[10] = system: SW-620 colon
[11] = system: OVCAR-3 ovarian
[12] = system: OVCAR-8 ovarian
[13] = system: EKVX NSCLC
[14] = system: RPMI-8226 leukemia
[15] = system: CCRF-CEM leukemia
[16] = system: KM12 colon
[17] = system: MDA-MB-435
[18] = system: OVCAR-4 ovarian
[19] = system: PC-3 prostate
[20] = system: ACHN renal
[21] = system: SNB-75 CNS
[22] = system: COLO 205 colon
[23] = system: TK-10 renal
[24] = system: HCT-116 colon
[25] = system: SK-OV-3 ovarian
[26] = system: UO-31 renal
[27] = system: OVCAR-5 ovarian
[28] = system: SF-295 CNS
[29] = system: A498 renal
[30] = system: K-562 leukemia
[31] = system: NCI-H226 lung
[32] = system: HCC-2998 colon
[33] = system: NCI-H460 lung
[34] = system: NCI-H522 lung
[35] = system: 786-0 renal
[36] = system: UACC-257 melanoma
[37] = system: MOLT-4 leukemia
[38] = system: T-47D breast
[39] = system: BT-549 breast

Cc1cc(N2CCCCC2)nc(NC2CCCC(Nc3ccnc4cc(Cl)ccc34)C2)n1 (stereo unspecified)
GI50 [1]: 1120 nM | TGI [1]: 2470 nM | GI50 [2]: 1550 nM | TGI [2]: 3950 nM | GI50 [3]: 825 nM | TGI [3]: 2170 nM | GI50 [4]: 1800 nM | TGI [4]: 3390 nM | GI50 [5]: 1640 nM | TGI [5]: 3000 nM | GI50 [6]: 1580 nM | TGI [6]: 3440 nM | GI50 [7]: 1660 nM | TGI [7]: 3290 nM | GI50 [8]: 1450 nM | TGI [8]: 3100 nM | GI50 [9]: 1460 nM | TGI [9]: 2910 nM | GI50 [10]: 1490 nM | TGI [10]: 3140 nM | GI50 [11]: 1630 nM | TGI [11]: 3420 nM | GI50 [12]: 1730 nM | TGI [12]: 3270 nM | GI50 [13]: 1540 nM | TGI [13]: 3540 nM | GI50 [14]: 472 nM | TGI [14]: 2560 nM | GI50 [15]: 1480 nM | TGI [15]: 10600 nM | GI50 [16]: 1790 nM | TGI [16]: 3520 nM | GI50 [17]: 1320 nM | TGI [17]: 2730 nM | GI50 [18]: 1400 nM | TGI [18]: 3290 nM | GI50 [19]: 1290 nM | TGI [19]: 2860 nM | GI50 [20]: 1540 nM | TGI [20]: 2980 nM | GI50 [21]: 1390 nM | TGI [21]: 3180 nM | GI50 [22]: 1440 nM | TGI [22]: 2980 nM | GI50 [23]: 2070 nM | TGI [23]: 4250 nM | GI50 [24]: 1020 nM | TGI [24]: 2210 nM | GI50 [25]: 1650 nM | TGI [25]: 3170 nM | GI50 [26]: 1200 nM | TGI [26]: 2480 nM | GI50 [27]: 1880 nM | TGI [27]: 4840 nM | GI50 [28]: 1520 nM | TGI [28]: 2920 nM | GI50 [29]: 1670 nM | TGI [29]: 3420 nM | GI50 [30]: 316 nM | TGI [30]: 1230 nM | GI50 [31]: 1990 nM | TGI [31]: 3900 nM | GI50 [32]: 1750 nM | TGI [32]: 3400 nM | GI50 [33]: 1390 nM | TGI [33]: 2860 nM | GI50 [34]: 1950 nM | TGI [34]: 3750 nM | GI50 [35]: 1270 nM | TGI [35]: 2590 nM | GI50 [36]: 1920 nM | TGI [36]: 3550 nM | GI50 [37]: 1210 nM | TGI [37]: 3700 nM | GI50 [38]: 1510 nM | TGI [38]: 4070 nM | GI50 [39]: 1580 nM | TGI [39]: 3070 nM

C#CC[C@@H]1C[C@]2(C)[C@H]3CC[C@@H]4[C@H]5C(C(=C)C)CC[C@]5(C(=O)NCCCCCCCCN)CC[C@@]4(C)[C@]3(C)CC[C@H]2C(C)(C)[C@H]1OC(C)=O (stereo partly specified)
GI50 [10]: 1710 nM | TGI [10]: 3310 nM | GI50 [16]: 1730 nM | TGI [16]: 3220 nM | GI50 [26]: 1460 nM | TGI [26]: 2840 nM | GI50 [29]: 2250 nM | TGI [29]: 5350 nM
